Active and inactive are the calls of the source. The calls are words filed in the database; no cut-off is given here.
Legend:
[1] = tested on: Rattus norvegicus; test: Antiinflammatory activity in rat assessed as reduction in carrageenan-induced foot edema at 50 mg/kg, po; format: functional
[2] = tested on: Rattus norvegicus; test: Antiinflammatory activity in rat assessed as reduction in carrageenan-induced foot edema at 50 mg/kg, po relative to phenylbutazone-treated control; format: functional
[3] = Toxicity in po dosed mouse; format: organism-based; conditions: in vivo
[4] = tested on: Rattus norvegicus; test: Antiinflammatory activity in rat assessed as reduction in carrageenan-induced foot edema at 50 mg/kg, po bid administered 3 hrs and again 0.5 hrs prior to carrageenan challenge; format: functional
[5] = tested on: Rattus norvegicus; test: Antiinflammatory activity in rat assessed as reduction in carrageenan-induced foot edema at 50 mg/kg, po bid administered 3 hrs and again 0.5 hrs prior to carrageenan challenge relative to phenylbutazone-treated control; format: functional
[6] = tested on: Rattus norvegicus; test: Antiinflammatory activity in rat assessed as reduction in carrageenan-induced foot edema at 50 mg/kg, po relative to hydrocortisone-treated control; format: functional
[7] = tested on: Rattus norvegicus; test: Antiinflammatory activity in rat assessed as reduction in carrageenan-induced foot edema at 25 mg/kg, po; format: functional
[8] = species on record: Rattus norvegicus; test: Antiinflammatory activity against mycobacterial adjuvant-induced arthritis in albino rat assessed as reduction in foot swelling by micrometer analysis; format: functional, organism-based

Row | Structure (SMILES) | inhibition in vivo at 50 mg/kg [1] [%] | inhibition in vivo at 50 mg/kg [2] [%] | LD50 [3] [mg/kg] | inhibition in vivo at 50 mg/kg [4] [%] | inhibition in vivo at 50 mg/kg [5] [%] | inhibition in vivo at 50 mg/kg [6] [%] | inhibition in vivo at 25 mg/kg [7] [%] | inhibition [8]
1 | CC(C(=O)O)c1cccc2c(-c3ccccc3)noc12 (configuration not stated) | 42 | 32 | 1600 |  |  |  |  | 
2 | O=C(O)Cc1ccc2onc(-c3ccc(Cl)cc3)c2c1 |  |  | 600 | 22 | 36 |  |  | 
3 | CC(C(=O)O)c1ccc2c(-c3ccc(Cl)cc3)noc2c1 (configuration not stated) | 46 |  | 600 |  |  | 38 |  | 
4 | CC(C(=O)O)c1ccc2onc(-c3ccc(Cl)cc3)c2c1 (configuration not stated) | 18 |  | 800 |  |  | 38 |  | 
5 | CC(C(=O)O)c1cccc2c(-c3ccc(Cl)cc3)noc12 (configuration not stated) |  | 48 | 200 |  |  |  | 46 | Active
6 | CC(C(=O)O)c1ccc2c(-c3ccc(F)cc3)noc2c1 (configuration not stated) | 37 | 57 | 400 |  |  |  |  | 
7 | O=C(O)Cc1cccc2c(-c3ccc(Cl)cc3)noc12 | 36 | 49 | 600 |  |  |  |  | 
